Where two headings read alike, the source gives them in different places.
Key:
[1] = molecular target: T1, CYP3A4 (Homo sapiens, UniProt P08684); conditions: healthy volunteers; itraconazole 100 mg; loperamide 4 mg; cited from earlier work
Target sequence in this assay (P08684 whole entry): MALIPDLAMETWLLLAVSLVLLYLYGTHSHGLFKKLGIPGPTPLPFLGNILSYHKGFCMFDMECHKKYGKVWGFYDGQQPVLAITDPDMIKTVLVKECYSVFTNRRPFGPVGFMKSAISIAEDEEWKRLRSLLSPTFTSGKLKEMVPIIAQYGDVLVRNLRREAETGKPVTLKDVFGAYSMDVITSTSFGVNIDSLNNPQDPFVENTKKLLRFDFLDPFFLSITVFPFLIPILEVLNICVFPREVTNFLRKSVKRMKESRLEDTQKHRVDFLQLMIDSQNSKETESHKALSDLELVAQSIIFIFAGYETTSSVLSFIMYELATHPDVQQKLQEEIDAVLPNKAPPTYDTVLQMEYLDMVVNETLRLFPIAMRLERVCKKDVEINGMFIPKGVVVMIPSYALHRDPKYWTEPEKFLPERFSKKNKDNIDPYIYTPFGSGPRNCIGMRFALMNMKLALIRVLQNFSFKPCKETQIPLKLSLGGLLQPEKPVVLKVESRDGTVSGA

[2] = molecular target: T1, CYP3A4; conditions: healthy volunteer; ritonavir 600 mg; loperamide 16 mg; cited from earlier work
Target sequence in this assay (P08684 whole entry): as above

[3] = human
Method: (§1) Each active ingredient was incubated at 0.1 μM at 37° C. […] The reaction is initiated by addition of NADPH 1 mM. The incubation is monitored in kinetic form. At the incubation timepoints of 7 min, 17 min, 30 min and then 60 min, an incubation aliquot (100 μL) is sampled and the enzymatic reaction is stopped by adding to that aliquot a to volume of solvent (100 μL of methanol) which is placed in ice for 10 minutes.
(§2) At each incubation timepoint, the active ingredient is quantified by high-performance liquid chromatography (HPLC) coupled with mass spectrometry (MS).

[4] = molecular target: T2, CYP2B6 (Homo sapiens, UniProt P20813)
T2 sequence (P20813 1-491): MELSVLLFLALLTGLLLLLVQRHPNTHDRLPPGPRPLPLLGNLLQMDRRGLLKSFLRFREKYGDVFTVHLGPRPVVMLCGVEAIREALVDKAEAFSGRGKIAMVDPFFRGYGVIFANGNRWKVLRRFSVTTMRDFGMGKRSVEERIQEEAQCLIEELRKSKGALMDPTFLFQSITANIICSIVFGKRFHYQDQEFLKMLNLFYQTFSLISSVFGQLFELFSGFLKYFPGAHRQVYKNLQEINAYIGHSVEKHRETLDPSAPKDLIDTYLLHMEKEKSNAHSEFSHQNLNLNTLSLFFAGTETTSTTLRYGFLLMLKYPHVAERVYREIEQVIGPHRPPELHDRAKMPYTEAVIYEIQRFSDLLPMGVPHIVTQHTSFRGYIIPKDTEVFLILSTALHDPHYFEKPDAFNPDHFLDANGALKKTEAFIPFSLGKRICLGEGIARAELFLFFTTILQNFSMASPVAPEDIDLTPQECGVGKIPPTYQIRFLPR
Method: as §1, §2

[5] = molecular target: T3, CYP2C8 (Homo sapiens, UniProt P10632)
T3 sequence (P10632 1-490): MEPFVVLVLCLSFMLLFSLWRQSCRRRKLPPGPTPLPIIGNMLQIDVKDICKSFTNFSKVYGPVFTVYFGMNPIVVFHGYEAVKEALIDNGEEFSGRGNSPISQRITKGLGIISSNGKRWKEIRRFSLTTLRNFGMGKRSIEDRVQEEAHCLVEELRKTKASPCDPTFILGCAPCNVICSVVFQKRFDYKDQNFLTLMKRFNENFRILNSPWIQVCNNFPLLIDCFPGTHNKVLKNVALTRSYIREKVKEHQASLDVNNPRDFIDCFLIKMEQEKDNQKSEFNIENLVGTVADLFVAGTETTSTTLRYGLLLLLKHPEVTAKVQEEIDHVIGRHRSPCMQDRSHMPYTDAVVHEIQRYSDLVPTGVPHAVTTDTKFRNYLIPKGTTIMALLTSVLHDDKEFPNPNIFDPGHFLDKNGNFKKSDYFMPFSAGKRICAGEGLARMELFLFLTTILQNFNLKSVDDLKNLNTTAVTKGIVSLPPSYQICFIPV
Method: as §1, §2

[6] = molecular target: CYP2C9 (Homo sapiens, UniProt P11712)
Method: as §1, §2

[7] = molecular target: T4, CYP2D6 (Homo sapiens, UniProt P10635); conditions: mirtazapine 2.5 to 1000 μM; human recombinant enzyme model; cited from earlier work
[8] = molecular target: T1, CYP3A4; conditions: mirtazapine 2.5 to 1000 μM; human recombinant enzyme model; cited from earlier work
Target sequence in this assay (P08684 whole entry): as the sequence (P08684 whole entry) above

[9] = molecular target: T1, CYP3A4
Method: as §1, §2
Target sequence in this assay (P08684 2-503): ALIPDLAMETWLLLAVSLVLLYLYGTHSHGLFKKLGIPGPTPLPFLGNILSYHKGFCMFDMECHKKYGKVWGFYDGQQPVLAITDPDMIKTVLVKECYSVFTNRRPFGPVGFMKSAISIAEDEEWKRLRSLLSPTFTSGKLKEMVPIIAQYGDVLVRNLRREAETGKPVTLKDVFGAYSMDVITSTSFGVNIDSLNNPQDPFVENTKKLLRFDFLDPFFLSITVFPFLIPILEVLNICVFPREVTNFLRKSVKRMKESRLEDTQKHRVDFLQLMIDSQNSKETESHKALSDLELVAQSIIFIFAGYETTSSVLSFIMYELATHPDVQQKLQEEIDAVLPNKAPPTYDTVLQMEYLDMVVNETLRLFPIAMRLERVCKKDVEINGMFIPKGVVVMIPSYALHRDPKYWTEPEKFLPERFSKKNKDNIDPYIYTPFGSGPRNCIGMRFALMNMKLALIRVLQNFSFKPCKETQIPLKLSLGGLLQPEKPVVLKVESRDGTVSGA

[10] = molecular target: T2, CYP2B6; conditions: in a pool of human liver; cited from earlier work
[11] = system: CYP1A2
Method: as §1, §2

[12] = molecular target: T4, CYP2D6
Method: as §1, §2

[13] = molecular target: T1, CYP3A4; conditions: bortezomib 2 μM; human liver microsomes; cited from earlier work
Target sequence in this assay (P08684 whole entry): as the sequence (P08684 whole entry) above

CYP2C9, sequence (P11712 whole entry): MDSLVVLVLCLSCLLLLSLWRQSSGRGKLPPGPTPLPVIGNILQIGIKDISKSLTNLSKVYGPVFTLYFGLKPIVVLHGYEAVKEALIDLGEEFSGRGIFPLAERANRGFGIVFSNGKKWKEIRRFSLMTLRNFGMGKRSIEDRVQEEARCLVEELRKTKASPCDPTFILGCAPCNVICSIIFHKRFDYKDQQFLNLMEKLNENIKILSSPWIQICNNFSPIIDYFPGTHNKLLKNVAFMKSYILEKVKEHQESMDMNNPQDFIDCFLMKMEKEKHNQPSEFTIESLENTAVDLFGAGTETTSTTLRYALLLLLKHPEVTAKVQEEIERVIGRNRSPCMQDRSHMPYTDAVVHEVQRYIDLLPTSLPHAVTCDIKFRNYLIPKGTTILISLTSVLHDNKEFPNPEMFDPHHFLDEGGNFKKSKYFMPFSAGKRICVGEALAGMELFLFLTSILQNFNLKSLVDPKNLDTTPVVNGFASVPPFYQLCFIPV
T4 sequence (P10635 whole entry): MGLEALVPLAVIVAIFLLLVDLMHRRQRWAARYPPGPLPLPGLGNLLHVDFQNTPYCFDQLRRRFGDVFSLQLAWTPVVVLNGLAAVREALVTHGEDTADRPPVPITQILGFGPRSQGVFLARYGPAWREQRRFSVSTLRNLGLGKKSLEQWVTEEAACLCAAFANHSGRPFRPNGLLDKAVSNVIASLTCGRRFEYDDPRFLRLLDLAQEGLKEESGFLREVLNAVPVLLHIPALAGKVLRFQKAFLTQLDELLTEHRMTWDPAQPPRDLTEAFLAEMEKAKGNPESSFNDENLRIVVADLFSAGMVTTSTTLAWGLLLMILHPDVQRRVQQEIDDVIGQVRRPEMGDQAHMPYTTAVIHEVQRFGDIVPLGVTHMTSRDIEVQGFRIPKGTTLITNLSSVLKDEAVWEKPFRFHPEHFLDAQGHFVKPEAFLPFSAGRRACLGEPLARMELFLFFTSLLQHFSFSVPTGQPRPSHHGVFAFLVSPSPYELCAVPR

| Structure (SMILES) | increase in exposure, factor [1] | increase in exposure, factor [2] | intrinsic clearance in the presence of control microsomes [3] | inhibition of intrinsic clearance = % involvement of CYP2B6 in the oxidative metabolism (kit of isolated microsomes) [4] | inhibition of intrinsic clearance = % involvement of CYP2C8 in the oxidative metabolism (kit of isolated microsomes) [5] | inhibition of intrinsic clearance = % involvement of CYP2C9 in the oxidative metabolism (kit of isolated microsomes) [6] | % involvement of CYP2D6 in the metabolism, expected data (Störmer et al.) [7] [%] | % involvement of CYP3A4 in the metabolism, expected data (Störmer et al.) [8] [%] | inhibition of intrinsic clearance = % involvement of CYP3A4 in the oxidative metabolism (kit of isolated microsomes) [9] | % involvement of CYP2B6 in the metabolism, expected data (Obach et al.) [10] [%] | inhibition of intrinsic clearance = % involvement of CYP1A2 in the oxidative metabolism (kit of isolated microsomes) [11] | inhibition of intrinsic clearance = % involvement of CYP2D6 in the oxidative metabolism (kit of isolated microsomes) [12] | inhibition of metabolism by anti-CYP 3A4 monoclonal antibody = % involvement of CYP3A4, expected data (Uttamsingh et al.) [13] [%] |
| --- | --- | --- | --- | --- | --- | --- | --- | --- | --- | --- | --- | --- | --- |
| CN(C)C(=O)C(CCN1CCC(O)(c2ccc(Cl)cc2)CC1)(c1ccccc1)c1ccccc1 [loperamide] | 3.8 | 2.65 |  |  |  |  |  |  |  |  |  |  |  |
| CN1CCN2c3ncccc3Cc3ccccc3C2C1 (centres unmarked) [mirtazapine] |  |  | 3.9-7.8 ml/min/g of proteins | No significant inhibition | No significant inhibition | No significant inhibition | 39 | 23 |  |  |  |  |  |
| CN[C@H]1CC[C@@H](c2ccc(Cl)c(Cl)c2)c2ccccc21 [sertraline] |  |  | 52.5-70.5 ml/min/g of proteins |  | No significant inhibition | No significant inhibition |  |  | No significant inhibition | 60 |  |  |  |
| CC(C)C[C@H](NC(=O)[C@H](Cc1ccccc1)NC(=O)c1cnccn1)B(O)O [bortezomib] |  |  | 6.9-11 ml/min/g of proteins | No significant inhibition | No significant inhibition | No significant inhibition |  |  |  |  | No significant inhibition | No significant inhibition | 79 |

— patent US20150247179A1 (Les Laboratoires Servier, priority 2013, published 2015)
